Tested on: HT29 colon carcinoma cells
Assay: Luciferase expression in lysates of adenovirally infected HT29 cells
Format: cell-based, human
Settings: HT29, Ad.3r-luc m.o.i. 30, 24 hours
Experimental: […], Colo205, SkCO-1, AsPc-1, HepG2, MCF-7, BT-20, HeLa, RT4 and U266 cells were seeded in six and twelve (U266) vial-plates at a concentration of 1×10^6 cells per cavity for 6 hours before transfection. The larger HeLa, RT-4 and 293 cells were seeded in a concentration of 5×10^5 cells per vial. U266 myeloma cells were allowed to grow in suspension culture and infected. Purified viral particles were diluted in media without supplementation and the cells were exposed to 500 μl of the suitable virus dilution per vial for 1 hour. After removal of the infectious supernatant, complete media which had been supplemented with different concentrations of doxycycline, were added. The media were changed every 24 hours.
24 hours after infection with Ad.CMV-luc or Ad.3r-luc, the cells were harvested with 150 μl of cell culture lysis reagent according to the manufacturer's (Promega) instructions. The luciferase activity in 20 μl of cell lysate was measured using a Bertold LB9507 luminometer and luciferase assay substrate (Promega). […] The protein concentration was determined using the DC protein assay kit (BioRad, Hercules, Calif.).
Human colon carcinoma cells HT29 are extremely receptive for adenoviral transduction, as has been shown previously (A. Block et al. Cancer Gene Therapy 7 (2000) 438-445). […] The luciferase activity was determined in cell lysates in relation to the dissolved cell protein. […]

Structure (SMILES): C[C@H]1c2cccc(O)c2C(=O)C2=C(O)[C@]3(O)C(=O)C(C(N)=O)=C(O)[C@@H](N(C)C)[C@@H]3[C@@H](O)[C@@H]21 [doxycycline]
- doxycycline concentration leading to a significant reduction in gene expression: 100 pg/mL
